Experimental data: patent publication US20250101062A1, “ANTIMICROBIAL PEPTIDES” (Board of Regents of the University of Nebraska, priority 2023, published 2025)
Where two headings read alike, the source gives them in different places. Where no end group is shown, it is not given here.

Tests used:
S. aureus USA300 LAC = experiment: microbe, parasite or virus in culture; type: cell-based, Staphylococcus aureus
How it was run: (§1)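 Broth microdilution with twofold peptide dilutions, using exponential-phase bacteria at about 10^5 CFU/mL in MHB, incubated overnight at 37 °C and read at OD600. MIC, reported as a range, is the peptide concentration with no growth. Some tests used diluted MHB/TSB/LB, adjusted pH, or added NaCl or human serum.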

E. coli E423-17 = type: cell-based, Escherichia coli; details: E423-17
S. epidermidis 1457 = experiment: microbe, parasite or virus in culture; type: cell-based, Staphylococcus epidermidis; details: read-out: Antimicrobial activity (MIC) S. epidermidis 1457
How it was run: (§2)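 Peptides twofold serially diluted against exponential-phase resistant clinical isolates at ~10^5 CFU/mL in MHB (also diluted MHB, TSB or LB in one protocol), CLSI-based broth microdilution. Incubated overnight at 37° C., OD 600 nm read; MIC taken as lowest concentration without growth, reported as ranges.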

K. pneumoniae E406-17 = type: cell-based, Klebsiella pneumoniae
How it was run: as §2

A. baumannii B28-16 = type: cell-based, Acinetobacter baumannii; details: B28-16
How it was run: as §2

P. aeruginosa E411-17 = experiment: microbe, parasite or virus in culture; type: cell-based, Pseudomonas aeruginosa; details: for MIC: read-out: Antimicrobial activity (MIC)
How it was run: as §1

P. aeruginosa E416-17 = type: cell-based, Pseudomonas aeruginosa
Procedure: Peptide activity against bacteria were tested using the CLSI standard procedure with minor modifications (Clinical and Laboratory Standards Institute (2018) Performance standards for antimicrobial susceptibility testing, 9th ed.; Mishra, et al. (2019) Proc. Natl. Acad. Sci., 116(27):13517-13522). In brief, a peptide concentration gradient with twofold dilution was made in the 96-well polystyrene microplate at 10 μL per well. Bacteria were grown to the exponential phase (i.e., optical density at 600 nm≈0.5), diluted to ˜10^5 CFU/mL in MHB, and partitioned into the 96-well microplate at 90 μL per well. The microplates were incubated at 37° C. overnight and read on a ChroMate® 4300 Microplate Reader at 600 nm (GMI, Ramsey, MN). The peptide concentration in the wells without bacterial growth is the minimal inhibitory concentration (MIC). As the convention, MIC values were represented as ranges.

human red blood cells = experiment: Hemolytic assay; type: cell-based; details: red cells of human
Procedure: The hemolytic effects of peptides were evaluated using a method with minor modifications (Lakshmaiah Narayana, et al. (2021) ACS Infect. Dis., 7:1795-1808). Human red blood cells (hRBCs, UNMC Blood Bank) were washed (3×) with blood bank saline (isotonic solution 0.90% w/v, Fisher). Cells were diluted to 2% using the saline solution, and aliquots of 90 μL were added to a 96-well polystyrene microplate containing 10 μL of serially diluted peptide solutions. After incubation at 37° C. for 1 hour, plates were centrifuged at 500 g for 5 minutes. Aliquots of the supernatant were transferred to a 96-well microplate. The amount of hemoglobin released was measured at 545 nm by using a ChroMate™ microplate reader. […] HC50 is defined as the concentration of the peptide that caused 50% lysis.
The hemolytic effects of peptides were evaluated (Narayana, et al. (2020) Proc. Natl. Acad. Sci., 117(32):19446-9454). In brief, human red blood cells (UNMC Blood Bank) were washed (3×) and diluted to 2% using the saline solution. Aliquots of 90 μL were mixed with 10 μL of serially diluted peptide solutions. After incubation at 37° C. for 1 hour, plates were centrifuged at 500 g for 5 minutes and aliquots of the supernatant were transferred to a new 96-well microplate to measure the amount of hemoglobin released at 545 nm (relative to 1% Triton® X-100) using a ChroMate® Microplate Reader.

[1] = Cell viability assay (MTS); type: cell-based, human; details: human; 24 h; read-out: 50% lethal concentration (LC50)
Procedure: Human keratinocyte HaCaT cells were grown in DMEM/high glucose (Hyclone, UT) containing 10% fetal bovine serum (Mediatech, Corning, Manassas, VA). […] The mixture was incubated at 37° C. in 5% CO2 for 24 hours.
(§3) HepG2 cells were cultured in ATCC-formulated Eagle's Minimum Essential Medium with 10% FBS. A549 cells were grown in ATCC-formulated F-12K Medium containing 10% FBS.

Cytotoxicity assay (MTS) = type: cell-based; details: human, HepG2 cells, read-out: LC50
Procedure: as §3

Q: For RWKRFLRNWV-NH2 [RIK-10+], which “MIC S. aureus USA300” value (S. aureus USA300 LAC; USA300) is on record?
A: 16 to 32 µM

Q: And the MIC (S. aureus USA300 LAC; USA300, pH 6.21, read-out: Antimicrobial activity (MIC))?
A: >32 µM

Q: What about the MIC (S. aureus USA300 LAC; USA300, pH 7.22, read-out: Antimicrobial activity (MIC)) of the same substance?
A: 16 µM

Q: What about the MIC (S. aureus USA300 LAC; USA300, pH 8.13, read-out: Antimicrobial activity (MIC)) of the same substance?
A: 8 µM

Q: And the MIC (S. aureus USA300 LAC; USA300, read-out: Antimicrobial activity (MIC))?
A: > 32 µM

Q: What about the MIC (S. aureus USA300 LAC; USA300, read-out: Antimicrobial activity (MIC) S. aureus USA300) of the same substance?
A: 16 µM

Q: And the “Antimicrobial activity (MIC) E. coli E423-17” value (E. coli E423-17)?
A: 4 µM

Q: What about the “MIC E. coli E423-17” value (E. coli E423-17) of the same substance?
A: 4 to 8 µM

Q: What about the MIC (S. epidermidis 1457) of the same substance?
A: >32 µM

Q: What about the “MIC K. pneumoniae E406-17” value (K. pneumoniae E406-17) of the same substance?
A: 32 µM

Q: What about the “Antimicrobial activity (MIC) A. baumannii B28-16” value (A. baumannii B28-16) of the same substance?
A: 8 µM

Q: And the “Antimicrobial activity (MIC) P. aeruginosa E411-17” value (P. aeruginosa E411-17; E411-17)?
A: 4 µM

Q: And the MIC (P. aeruginosa E411-17; E411-17, pH 6.21)?
A: 8 µM

Q: And the “Antimicrobial activity (MIC)” value (P. aeruginosa E411-17; E411-17, pH 7.22)?
A: 4 to 8 µM

Q: What about the MIC (P. aeruginosa E411-17; E411-17, pH 8.13) of the same substance?
A: 4 µM

Q: And the MIC (P. aeruginosa E411-17; E411-17)?
A: >32 µM

Q: What about the “MIC P. aeruginosa E416-17” value (P. aeruginosa E416-17) of the same substance?
A: 4 µM

Q: What about the “Hemolysis (HC10), 10% hemolytic concentration” value (human red blood cells) of the same substance?
A: 220 µM

Q: What about the CC50 at 24 h [1] of the same substance?
A: 100 µM

Q: And the CC50 at 24 h (Cytotoxicity assay (MTS))?
A: 100 µM
